# Test results from US20240269223A1, “PROPHYLACTIC OR THERAPEUTIC AGENT FOR ACUTE RENAL FAILURE” (KYOWA HAKKO BIO CO., LTD., priority 2021, published 2024).
# Key:
# [1] = tested on: rat ischemic acute renal injury model with unilateral nephrectomy; assay: Rat ischemic acute renal injury model with unilateral nephrectomy; assay type: in vivo; settings: 200 mg/kg GSSSG intraperitoneal once a day x4 (day -4 to -1) before 40 min ischemia/reperfusion, versus control group
# Procedure: GSSSG dihydrate produced by the method described in Patent Literature 1 was carefully crushed in a mortar for 10 minutes or longer. 1,333 mg (1,250 mg in terms of anhydride) of GSSSG dihydrate was weighed out. 1,333 mg of the crushed GSSSG dihydrate was added to 40 mL of a normal saline, and the mixture was stirred in a suspended state for 5 minutes. 0.25 to 0.50 g of sodium bicarbonate was added to the suspension and dissolved. This GSSSG solution was transferred to a measuring cylinder, and a normal saline was added to make up 50 mL to obtain a preparation solution (final concentration: 25 mg/mL). The obtained preparation solution was filtered with a filter (0.22 μm filter) and used as an administration sample.
# In the test, 4-week old male SD rats (body weight 99 to 113 g)
# were used. A 16-day preliminary breeding period was set for the obtained animals. Rats with no abnormalities in body weight change and general condition were used for grouping.
# One kidney was removed from rats in which no abnormalities were observed after the preliminary breeding period by the following method. […]
# The administration sample was administered into the peritoneal cavity of rats from which the right kidney was removed using a disposable polypropylene syringe with an injection needle. […] The amount of solution administered was calculated at 8 mL/kg based on the body weight on the first day of administration. […]
# [2] = tested on: rat bilateral kidney simultaneous ligation ischemic acute renal injury model; assay: Rat bilateral kidney simultaneous ligation ischemic acute renal injury model; assay type: in vivo; settings: for Blood creatinine (CRE), before administration / Blood urea nitrogen (UN), before administration: baseline, day before administration; for Blood creatinine (CRE), before administration / Blood urea nitrogen (UN), before administration / GDF-15 (growth differentiation factor), 48 hours after ischemia reperfusion / Blood creatinine (CRE), 48 hours after ischemia reperfusion / Blood urea nitrogen (UN), 48 hours after ischemia reperfusion: plasma; for GDF-15 (growth differentiation factor), 48 hours after ischemia reperfusion: ELISA, control 1532 ± 246, placebo surgery 75.2 ± 4.3; for Blood creatinine (CRE), 48 hours after ischemia reperfusion: control 2.98 ± 0.56, placebo surgery 0.24 ± 0.01; for Blood urea nitrogen (UN), 48 hours after ischemia reperfusion: control 154.6 ± 19.5, placebo surgery 14.4 ± 1.1
# Procedure: GSSSG dihydrate produced by the method described in Patent Literature 1 was carefully crushed in a mortar for 10 minutes or longer. A required amount of GSSSG dihydrate was weighed out. 0.5 w/v % methylcellulose (hereinafter abbreviated to as MC) was added to the crushed GSSSG dihydrate to prepare a suspension at a concentration of 10 mg/mL, and used as an administration sample for a high-dose administration group. The 10 mg/mL suspension was diluted with 0.5 w/v % MC to prepare a 4 mg/mL suspension, and used as an administration sample for a low-dose administration group.
# In the test, 5-week old male SD rats (body weight 136 to 154 g) were used. An 8-day preliminary breeding period was set for the obtained animals. Rats with no abnormalities in body weight change and general condition were used for grouping.
# The administration method was oral administration. Forced oral administration was performed using a disposable polypropylene syringe with a metal oral gavage tube for rats. The amount of solution administered was 5 ml/kg for both the high dose group and the low dose group based on the body weight closest to that of the day of administration. Administration was performed a total of 5 times: 1 day before, 2 days before, and 3 days before the ischemia treatment was performed, 1 hour before the ischemia treatment, and 2 hours after the reperfusion treatment.
# The ischemia and reperfusion treatments were performed as follows. Anesthesia was performed by intraperitoneal administration of 45 mg/kg (1 mL/kg) of pentobarbital sodium and subcutaneous administration of 1 mg/kg (1 mL/kg) of butorphanol tartrate. Both dorsal parts where the kidneys were located were shaved. Then, the animals were treated on a heater mat. The surgical site was disinfected with about 70% of an alcohol and then incised using scissors. After both kidneys of the animals in Group 2 to Group 4 in Table 3 were exposed, the renal arteries and veins of the left kidney and the right kidney in order were clamped using Klemme (clip power 120 g) for 40 minutes. During clamping, the kidney was returned to the body in order to prevent kidney desiccation. During reperfusion, it was confirmed that the blood color of the kidney was returned to normal (red), and the laparotomy wound was closed and disinfected with Isodine. In the animals of the Group 1, both kidneys were exposed, and returned to the peritoneal cavity without ischemia treatment, and the laparotomy wound was closed and disinfected with Isodine 40 minutes after incision. After suturing, the rats were returned to the original breeding cage.
# On the day before administration, without anesthesia, about 0.25 mL of blood was collected from the tail vein using a heparin Na-treated capillary (DRUMMOND). The collected blood was cooled on ice and then separated using a centrifuge (4° C., 2,200×g, for 15 minutes), and the UN concentration and the CRE concentration were measured using the obtained plasma.
# 48 hours after the reperfusion treatment, under isoflurane anesthesia, all blood was collected from abdominal aorta, using a winged injection needle and a heparin Na-treated vacuum blood collection tube. The collected blood was cooled on ice and then separated using a centrifuge (4° C., 2,150×g, for 15 minutes), and UN, CRE and GDF-15 (Mouse/Rat GDF-15 Quantikine ELISA Kit, R&D Systems, Inc) were measured using the obtained plasma.
structure (smiles),measurement,setting,value
"N[C@@H](CCC(=O)N[C@@H](CSSSC[C@H](NC(=O)CC[C@H](N)C(=O)O)C(=O)NCC(=O)O)C(=O)NCC(=O)O)C(=O)O [GSSSG, glutathione trisulfide]",UN value (urea nitrogen concentration in plasma),[1]; FIG. 1,decreased
same,CRE value (creatinine concentration in plasma),[1]; FIG. 2,decreased
same,"Blood creatinine (CRE), before administration",[2]; 20 mg/kg oral group,0.21 ± 0.00 mg/dL
same,"Blood urea nitrogen (UN), before administration",[2]; 20 mg/kg oral group,13.5 ± 0.5 mg/dL
same,"GDF-15 (growth differentiation factor), 48 hours after ischemia reperfusion",[2]; 20 mg/kg oral x5,1673 ± 595 pg/mL
same,"Blood creatinine (CRE), 48 hours after ischemia reperfusion",[2]; 20 mg/kg oral x5,2.29 ± 0.52 mg/dL
same,"Blood urea nitrogen (UN), 48 hours after ischemia reperfusion",[2]; 20 mg/kg oral x5,136.8 ± 24.6 mg/dL
same,therapeutic effect,[2]; 50 mg/kg oral administration group,a therapeutic effect was exhibited
same,"GDF-15 concentration, change versus control group","[2]; 50 mg/kg oral group, 48 hours after reperfusion",slightly decreased
same,"Blood creatinine (CRE), before administration",[2]; 50 mg/kg oral group,0.20 ± 0.00 mg/dL
same,"Blood urea nitrogen (UN), before administration",[2]; 50 mg/kg oral group,11.5 ± 0.4 mg/dL
same,"GDF-15 (growth differentiation factor), 48 hours after ischemia reperfusion",[2]; 50 mg/kg oral x5,1327 ± 300 pg/mL
same,"Blood creatinine (CRE), 48 hours after ischemia reperfusion",[2]; 50 mg/kg oral x5,2.07 ± 0.45 mg/dL
same,"Blood urea nitrogen (UN), 48 hours after ischemia reperfusion",[2]; 50 mg/kg oral x5,106.2 ± 16.5 mg/dL
same,"UN value, change versus control group","[2]; GSSSG administration group, 20 and 50 mg/kg oral, 48 hours after reperfusion, Table 5",decreased in a dose-dependent manner
same,"CRE value, change versus control group","[2]; GSSSG administration group, 20 and 50 mg/kg oral, 48 hours after reperfusion, Table 6",decreased in a dose-dependent manner
